This is an account of results in patent US12371428B2 (Exelixis, Inc., priority 2019, dated 2025).

For test [1], the target named is Mer (phospho-Mer, MERTK-transfected 293A cells) (Homo sapiens (Human), UniProt Q12866). The test can be described thus: Mer autophosphorylation ELISA in transient transfected 293A cells (Example H). It counts as cell-based. The following applies: cellular activity; Mer autophosphorylation ELISA in transient transfected 293A cells. In a few lines: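 Human MERTK transiently transfected into 293A cells; compounds as 8-point dose curve in serum-free medium (0.3% DMSO final), 1 h. Lysates assayed by phospho-Mer sandwich ELISA against phospho-Mer standard; DMSO = 100%, reference inhibitor = 0% activity; IC50 from 4-parameter logistic fit.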

The target in test [2] is Human MET (residues 956-1390) (Homo sapiens (Human), UniProt P08581). The test can be described thus: Human Met kinase assay, HTRF KinEase (Example D-2). The following applies: protocol of Example D-2 (other compounds); read-out: c-Met IC50. It counts as biochemical. In outline: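 HTRF KinEase assay on MET residues 956-1390 (0.1 ng/well) in buffer with 5 mM MgCl2, 1 mM DTT and 1 mM MnCl2, with biotinylated peptide substrate, ATP at Km, 10 compound concentrations and 3% DMSO final, run 40 min at room temperature. The […] signal was normalized to DMSO and to 1 μM reference compound, and IC50 came from a 4-parameter logistic fit.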

Test [3] has as its target Met (phospho-Met, HGF-stimulated PC-3 prostate cancer cells) (Homo sapiens (Human), UniProt P08581). Briefly: Met autophosphorylation ELISA in PC-3 cells (Example F). The format is cell-based. The following applies: cellular activity; Met autophosphorylation ELISA in PC-3 cells; read-out: c-Met IC50. In outline: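 Sandwich ELISA for phospho-Met (panTyr) in PC-3 lysates. Cells starved 3 h serum-free, compound 1 h (8-pt curve, 0.3% DMSO), HGF 100 ng/mL 10 min. 100% = HGF + DMSO; 0% = HGF + reference inhibitor. IC50 by 4-parameter fit.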
(In general: In an ELISA, binding on a coated surface is turned into a signal by an enzyme label.)

Test [4] deals with Human KDR (residues 790-1356) (Homo sapiens (Human), UniProt P35968). The test can be described thus: Human KDR kinase assay, HTRF KinEase (Example B-2). The format is biochemical. Particulars: protocol of Example B-2 (other compounds). In outline:
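Human KDR residues 790-1356 (0.1 ng/well) in buffer with 5 mM MgCl2, 1 mM MnCl2, 1 mM DTT, biotinylated peptide substrate, ATP at Km (4.0 μM), 3% DMSO, 10 compound concentrations; 40 min, room temperature. EDTA stop, streptavidin-XL665/Eu-TK antibody HTRF read 665/620 nm; 4-parameter IC50.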

Molecules are shown by their SMILES. pIC50: −log10 of the molar value. Some results are limits rather than exact numbers.

Human KDR (residues 790-1356), sequence (P35968 790-1356): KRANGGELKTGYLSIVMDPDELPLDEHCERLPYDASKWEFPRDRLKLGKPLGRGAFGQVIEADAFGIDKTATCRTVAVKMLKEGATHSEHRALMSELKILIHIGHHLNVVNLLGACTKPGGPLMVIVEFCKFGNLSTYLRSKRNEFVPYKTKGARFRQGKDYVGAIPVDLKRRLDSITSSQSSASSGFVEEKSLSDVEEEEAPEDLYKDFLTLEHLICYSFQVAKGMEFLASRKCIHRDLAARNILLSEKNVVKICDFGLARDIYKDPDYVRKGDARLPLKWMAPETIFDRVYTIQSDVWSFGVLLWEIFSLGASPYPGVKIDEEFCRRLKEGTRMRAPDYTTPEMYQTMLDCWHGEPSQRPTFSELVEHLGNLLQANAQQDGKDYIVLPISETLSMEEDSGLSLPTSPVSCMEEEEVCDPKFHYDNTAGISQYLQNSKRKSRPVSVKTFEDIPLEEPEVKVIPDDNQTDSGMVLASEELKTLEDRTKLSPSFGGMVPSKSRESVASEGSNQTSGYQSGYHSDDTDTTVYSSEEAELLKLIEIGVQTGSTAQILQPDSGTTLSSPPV
Met (phospho-Met, HGF-stimulated PC-3 prostate cancer cells), sequence (P08581 25-1390): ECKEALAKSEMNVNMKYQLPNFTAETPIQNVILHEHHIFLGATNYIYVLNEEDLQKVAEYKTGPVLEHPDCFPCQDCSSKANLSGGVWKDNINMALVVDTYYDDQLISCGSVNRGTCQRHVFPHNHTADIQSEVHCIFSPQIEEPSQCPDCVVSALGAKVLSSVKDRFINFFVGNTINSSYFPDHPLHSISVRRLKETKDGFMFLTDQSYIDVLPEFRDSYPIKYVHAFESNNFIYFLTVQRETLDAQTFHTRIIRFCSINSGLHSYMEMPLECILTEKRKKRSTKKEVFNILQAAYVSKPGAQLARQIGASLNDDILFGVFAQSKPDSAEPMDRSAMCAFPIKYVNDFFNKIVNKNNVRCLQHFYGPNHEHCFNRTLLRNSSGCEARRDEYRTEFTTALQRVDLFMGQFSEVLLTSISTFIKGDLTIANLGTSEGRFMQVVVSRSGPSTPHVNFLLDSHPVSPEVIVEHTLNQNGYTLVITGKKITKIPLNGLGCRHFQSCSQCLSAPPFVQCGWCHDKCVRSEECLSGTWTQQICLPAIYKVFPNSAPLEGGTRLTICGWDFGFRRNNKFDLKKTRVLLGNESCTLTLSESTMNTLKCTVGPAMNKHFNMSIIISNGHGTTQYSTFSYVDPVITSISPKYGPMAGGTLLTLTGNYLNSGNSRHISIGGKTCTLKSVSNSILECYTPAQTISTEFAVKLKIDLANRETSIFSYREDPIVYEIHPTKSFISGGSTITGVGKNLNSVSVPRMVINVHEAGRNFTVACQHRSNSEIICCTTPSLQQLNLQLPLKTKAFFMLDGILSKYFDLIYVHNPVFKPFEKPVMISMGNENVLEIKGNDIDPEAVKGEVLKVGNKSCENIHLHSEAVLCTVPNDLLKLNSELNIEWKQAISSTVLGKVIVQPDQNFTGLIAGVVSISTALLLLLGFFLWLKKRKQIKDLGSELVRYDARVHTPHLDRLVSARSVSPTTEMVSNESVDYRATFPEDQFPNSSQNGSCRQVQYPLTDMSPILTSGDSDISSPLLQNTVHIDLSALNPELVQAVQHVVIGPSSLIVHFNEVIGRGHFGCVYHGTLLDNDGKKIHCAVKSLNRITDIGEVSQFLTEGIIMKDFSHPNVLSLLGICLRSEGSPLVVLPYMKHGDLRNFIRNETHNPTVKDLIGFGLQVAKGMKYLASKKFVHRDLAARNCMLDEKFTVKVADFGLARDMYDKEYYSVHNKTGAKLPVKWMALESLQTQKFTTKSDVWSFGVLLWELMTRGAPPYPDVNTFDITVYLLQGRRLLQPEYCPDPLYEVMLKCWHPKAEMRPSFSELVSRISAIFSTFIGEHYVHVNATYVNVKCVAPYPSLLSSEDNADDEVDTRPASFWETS
Mer (phospho-Mer, MERTK-transfected 293A cells), sequence (Q12866 21-999): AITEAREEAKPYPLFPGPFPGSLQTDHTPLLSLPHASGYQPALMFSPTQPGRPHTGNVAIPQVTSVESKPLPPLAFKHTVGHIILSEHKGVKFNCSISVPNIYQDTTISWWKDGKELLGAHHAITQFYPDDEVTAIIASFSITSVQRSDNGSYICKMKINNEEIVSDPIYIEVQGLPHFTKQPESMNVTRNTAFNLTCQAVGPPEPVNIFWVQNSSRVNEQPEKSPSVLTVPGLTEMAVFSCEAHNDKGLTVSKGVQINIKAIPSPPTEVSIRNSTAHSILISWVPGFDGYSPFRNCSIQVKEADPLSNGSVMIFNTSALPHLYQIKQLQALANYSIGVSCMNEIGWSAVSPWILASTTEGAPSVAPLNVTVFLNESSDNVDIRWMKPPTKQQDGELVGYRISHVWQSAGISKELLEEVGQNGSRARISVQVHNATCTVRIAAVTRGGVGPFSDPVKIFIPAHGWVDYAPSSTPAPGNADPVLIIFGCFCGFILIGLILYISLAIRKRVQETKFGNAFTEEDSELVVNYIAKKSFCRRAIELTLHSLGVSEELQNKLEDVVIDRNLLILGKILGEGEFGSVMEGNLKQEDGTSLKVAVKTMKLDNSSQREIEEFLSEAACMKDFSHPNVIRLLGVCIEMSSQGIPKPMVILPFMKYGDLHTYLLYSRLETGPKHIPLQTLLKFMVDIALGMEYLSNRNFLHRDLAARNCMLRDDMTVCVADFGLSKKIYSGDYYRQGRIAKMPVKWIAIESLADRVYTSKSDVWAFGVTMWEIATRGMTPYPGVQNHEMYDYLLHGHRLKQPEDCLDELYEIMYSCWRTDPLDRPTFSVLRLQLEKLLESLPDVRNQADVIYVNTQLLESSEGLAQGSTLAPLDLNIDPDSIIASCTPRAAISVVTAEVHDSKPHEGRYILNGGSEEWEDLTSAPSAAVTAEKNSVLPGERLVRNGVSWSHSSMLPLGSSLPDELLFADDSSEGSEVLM
Human MET (residues 956-1390), sequence (P08581 956-1390): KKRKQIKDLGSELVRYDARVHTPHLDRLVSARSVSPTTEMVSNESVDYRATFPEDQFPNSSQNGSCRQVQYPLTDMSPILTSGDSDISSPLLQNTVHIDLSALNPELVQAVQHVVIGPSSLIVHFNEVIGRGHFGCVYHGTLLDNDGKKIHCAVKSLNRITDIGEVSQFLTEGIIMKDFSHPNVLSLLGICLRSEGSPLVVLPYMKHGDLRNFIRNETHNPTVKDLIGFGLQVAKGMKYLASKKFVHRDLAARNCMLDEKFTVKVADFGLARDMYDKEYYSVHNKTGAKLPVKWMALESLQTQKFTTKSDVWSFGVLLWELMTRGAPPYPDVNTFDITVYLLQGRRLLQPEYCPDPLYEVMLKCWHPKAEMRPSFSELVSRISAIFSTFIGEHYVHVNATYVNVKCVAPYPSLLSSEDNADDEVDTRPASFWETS

On to `Cc1cc(F)ccc1-c1c(C)nnc(C(=O)Nc2ccc(Oc3ccnc4cc(C)c(F)nc34)c(F)c2)c1O` [Compound 430, N-[3-fluoro-4-[(6-fluoro-7-methyl-1,5-naphthyridin-4-yl)oxy]phenyl]-5-(4-fluoro-2-methylphenyl)-4-hydroxy-6-methylpyridazine-3-carboxamide], for which the pIC50 (in general, −log10 of the IC50, conventionally taken in molar units) in test [1] is greater than 7.00; in test [2], greater than 7.00; in test [3] it was greater than 7.00; in test [4] it was less than 6.52.
For the compound `COc1nc2c(Oc3ccc(NC(=O)c4c(C)nc(C)c(-c5ccc(F)cc5)c4O)cc3F)ccnc2cc1O` [Compound 431, N-[3-fluoro-4-[(7-hydroxy-6-methoxy-1,5-naphthyridin-4-yl)oxy]phenyl]-5-(4-fluorophenyl)-4-hydroxy-2,6-dimethylpyridine-3-carboxamide], the pIC50 in test [1], in test [2], in test [3] and in test [4] was greater than 7.00 in each case.
Turning to `COCCOc1cc2nccc(Oc3ccc(NC(=O)c4c(C)nc(C)c(-c5ccc(F)cc5)c4O)cc3F)c2nc1OC` [Compound 432, N-[3-fluoro-4-[[6-methoxy-7-(2-methoxyethoxy)-1,5-naphthyridin-4-yl]oxy]phenyl]-5-(4-fluorophenyl)-4-hydroxy-2,6-dimethylpyridine-3-carboxamide], the pIC50 in test [1], in test [2], in test [3] and in test [4] was greater than 7.00 in each case.
Turning to `COc1cc2nccc(Oc3ccc(NC(=O)c4cn(C5CC5)c(C)c(-c5ccc(F)cc5)c4=O)cc3F)c2nc1OC` [Compound 433, 1-cyclopropyl-N-[4-[(6,7-dimethoxy-1,5-naphthyridin-4-yl)oxy]-3-fluorophenyl]-5-(4-fluorophenyl)-6-methyl-4-oxopyridine-3-carboxamide], the pIC50 was greater than 7.00 in test [1], greater than 7.00 in test [2], greater than 7.00 in test [3] and less than 6.52 in test [4].
Turning to `COc1cc2nccc(Oc3ccc(NC(=O)c4cn(C5CC5)c(C)c(-c5ccc(F)cc5)c4=O)cc3)c2nc1OC` [Compound 434, 1-cyclopropyl-N-[4-[(6,7-dimethoxy-1,5-naphthyridin-4-yl)oxy]phenyl]-5-(4-fluorophenyl)-6-methyl-4-oxopyridine-3-carboxamide], the pIC50 in test [1] is greater than 7.00; in test [2] it was greater than 7.00; in test [3], greater than 7.00; in test [4], less than 6.52.
Turning to `COc1ccc2nccc(Oc3ccc(NC(=O)c4cn(C5CC5)c(C)c(-c5ccc(F)cc5)c4=O)cc3F)c2n1` [Compound 435, 1-cyclopropyl-N-[3-fluoro-4-[(6-methoxy-1,5-naphthyridin-4-yl)oxy]phenyl]-5-(4-fluorophenyl)-6-methyl-4-oxopyridine-3-carboxamide], the pIC50 was greater than 7.00 in test [1], greater than 7.00 in test [2], greater than 7.00 in test [3] and less than 6.52 in test [4].
For `COCCOc1nc2c(Oc3ccc(NC(=O)c4cnc(C)c(-c5ccc(F)cc5)c4O)cc3F)ccnc2cc1C` [Compound 436, N-[3-fluoro-4-[[6-(2-methoxyethoxy)-7-methyl-1,5-naphthyridin-4-yl]oxy]phenyl]-5-(4-fluorophenyl)-4-hydroxy-6-methylpyridine-3-carboxamide], the pIC50 was greater than 7.00 in test [1], greater than 7.00 in test [2], greater than 7.00 in test [3] and 6.52 to 7.00 in test [4].
Consider `COCCOc1nc2c(Oc3ccc(NC(=O)c4cnc(C)c(-c5ccc(F)cc5)c4O)cc3)ccnc2cc1C` [Compound 437, 5-(4-fluorophenyl)-4-hydroxy-N-[4-[[6-(2-methoxyethoxy)-7-methyl-1,5-naphthyridin-4-yl]oxy]phenyl]-6-methylpyridine-3-carboxamide], for which the pIC50 in test [1], in test [2], in test [3] and in test [4] was greater than 7.00 in each case.
Take `Cc1cc2nccc(Oc3ccc(NC(=O)c4cnc(C)c(-c5ccc(F)cc5)c4O)cc3F)c2nc1OCCCN1CCOCC1` [Compound 438, N-[3-fluoro-4-[[7-methyl-6-(3-morpholin-4-ylpropoxy)-1,5-naphthyridin-4-yl]oxy]phenyl]-5-(4-fluorophenyl)-4-hydroxy-6-methylpyridine-3-carboxamide]: the pIC50 in test [1], in test [2], in test [3] and in test [4] was greater than 7.00 in each case.
On to `COc1cc2nccc(Oc3ccc(NC(=O)c4cn(C5CC5)c(C)c(-c5ccc(F)cc5C)c4=O)cc3F)c2nc1OC` [Compound 439, 1-cyclopropyl-N-[4-[(6,7-dimethoxy-1,5-naphthyridin-4-yl)oxy]-3-fluorophenyl]-5-(4-fluoro-2-methylphenyl)-6-methyl-4-oxopyridine-3-carboxamide], for which the pIC50 was greater than 7.00 in test [1], 6.52 to 7.00 in test [2], greater than 7.00 in test [3] and less than 6.52 in test [4].
Turning to `COc1cc2nccc(Oc3ccc(NC(=O)c4cn(C5CC5)c(C)c(-c5ccc(F)cc5C)c4=O)cc3)c2nc1OC` [Compound 440, 1-cyclopropyl-N-[4-[(6,7-dimethoxy-1,5-naphthyridin-4-yl)oxy]phenyl]-5-(4-fluoro-2-methylphenyl)-6-methyl-4-oxopyridine-3-carboxamide], the pIC50 in test [1] was greater than 7.00; in test [2], greater than 7.00; in test [3] it was greater than 7.00; in test [4], less than 6.52.
In the case of `COc1ccc2nccc(Oc3ccc(NC(=O)c4cn(C5CC5)c(C)c(-c5ccc(F)cc5C)c4=O)cc3F)c2n1` [Compound 441, 1-cyclopropyl-N-[3-fluoro-4-[(6-methoxy-1,5-naphthyridin-4-yl)oxy]phenyl]-5-(4-fluoro-2-methylphenyl)-6-methyl-4-oxopyridine-3-carboxamide], the pIC50 in test [1] is greater than 7.00; in test [2], 6.52 to 7.00; in test [3], greater than 7.00; in test [4], less than 6.52.
For `COc1cc2nccc(Oc3ccc(NC(=O)c4c(C)nc(OC)c(-c5ccc(F)cc5)c4O)cc3F)c2nc1OC` [Compound 442, N-[4-[(6,7-dimethoxy-1,5-naphthyridin-4-yl)oxy]-3-fluorophenyl]-5-(4-fluorophenyl)-4-hydroxy-6-methoxy-2-methylpyridine-3-carboxamide], the pIC50 in test [1], in test [2], in test [3] and in test [4] was greater than 7.00 each time.
In the case of `COc1cc2nccc(Oc3ccc(NC(=O)c4c(C)nc(O)c(-c5ccc(F)cc5)c4O)cc3F)c2nc1OC` [Compound 443, N-[4-[(6,7-dimethoxy-1,5-naphthyridin-4-yl)oxy]-3-fluorophenyl]-5-(4-fluorophenyl)-4,6-dihydroxy-2-methylpyridine-3-carboxamide], the pIC50 in test [1] was greater than 7.00; in test [2], greater than 7.00; in test [3], 6.52 to 7.00; in test [4], greater than 7.00.
